# In patent publication US3995059A, “Pharmaceutical compositions containing fatty acid amide derivatives” (Sumitomo Chemical Company, Limited, priority 1966, dated 1976):
# Columns and labels:
# [1] = Acute oral toxicity, LD50 (Table 2); conditions: in vivo, mouse, P.O.
# Method: The extremely low toxicities of the present acid-amide compounds are illustrated in Table 2, in which the acute toxicities of some of the present compounds in mice are listed.
# As is seen from Table 2, no fatal case and no significant toxic symptoms were observed even in such large doses (per os) as 0.5 g. per 10 g., namely 50 g./kg. of the body weight. Also, no significant toxic symptoms, or fatal cases, were observed when the amides in amounts of 1, 0.5 or 0.2% in the diet were administered to mice everyday for three weeks. The appetite was normal and digestive functions were unchanged. When the internal organs were inspected by dissection, there was no appreciable change.
# Rabbit serum cholesterol = Rabbit serum cholesterol lowering ratio after 9 weeks; format: in vivo; conditions: control 0%
# Serum cholesterol = Serum cholesterol of rabbits fed a cholesterol rich diet; format: in vivo; conditions: 200 mg/day with cholesterol rich diet
# [2] = system: total cholesterol value in the blood serum; test: Total cholesterol in blood serum of mice fed a diet enriched with cholesterol and bile acids (Table 1); format: in vivo; conditions: 0.2% in diet, oral, 8 to 12 days
# Method: The effectiveness of the compounds was tested by using mice fed on a specific diet which was enriched with cholesterol and bile acids. […] The amide compound as well was mixed with the specific diet in an amount of 0.2%, and continuously administered orally for 8 to 12 days. Then the total cholesterol value in the blood serum of the animals was evaluated.
# liver cholesterol = test: Liver cholesterol (deposition of cholesterol and fat in the liver) of mice fed a cholesterol-rich diet (Table 1); format: in vivo; conditions: 0.2% in diet, oral, 8 to 12 days
# [3] = experiment [III], control not given
# [4] = experiment [VIII], control 2652
smiles,measurement,setting,value
CCCCC/C=C\C/C=C\CCCCCCCC(=O)NC(C)c1ccc(C)cc1 (centres unmarked) [drawing 138],LD50,[1],> 50000 mg/kg
CCCCC/C=C\C/C=C\CCCCCCCC(=O)NC(Cc1ccccc1)c1ccccc1 (centres unmarked),LD50,[1],> 50000 mg/kg
CCCCC/C=C\C/C=C\CCCCCCCC(=O)NC(CC)c1ccc(C)cc1 (centres unmarked) [drawing 146],Rabbit serum cholesterol Towering ratio (after 9 weeks),Rabbit serum cholesterol; 100 mg/kg/day,59.2%
CCCCC/C=C\C/C=C\CCCCCCCC(=O)NC(C)c1ccccc1 (centres unmarked) [drawing 144],Serum cholesterol,"Serum cholesterol; 2 weeks, control 250",250 mg. %
same,Serum cholesterol,"Serum cholesterol; 4 weeks, control 563",130 mg. %
same,Serum cholesterol,"Serum cholesterol; 6 weeks, control 890",65 mg. %
same,Serum cholesterol,"Serum cholesterol; 8 weeks, control 1150",60 mg. %
same,Serum cholesterol,"Serum cholesterol; 10 weeks, control 1750",52 mg. %
CCCCC/C=C\C/C=C\CCCCCCCC(=O)NC(C)c1ccc(Cl)cc1 (centres unmarked) [drawing 147],Rabbit serum cholesterol Towering ratio (after 9 weeks),Rabbit serum cholesterol; 100 mg/kg/day,80.1%
CCCCC/C=C\C/C=C\CCCCCCCC(=O)NC(C)c1ccc(C)cc1 (centres unmarked) [drawing 22],Serum cholesterol,"[2]; experiment [III], control 471",237 mg %
same,Liver cholesterol,liver cholesterol; [3],1047 mg/100 g.
CC/C=C\C/C=C\C/C=C\CCCCCCCC(=O)NC(Cc1ccccc1)c1ccccc1 (centres unmarked) [drawing 100],Serum cholesterol,"[2]; experiment [XI], control 595",275 mg %
same,Liver cholesterol,"liver cholesterol; experiment [XI], control 3451",1632 mg/100 g.
CCCCCC=CCC=CCCCCCCCC(=O)NC(Cc1ccccc1)c1ccccc1 (stereo not drawn) [l- C17 H31 CO],Serum cholesterol,"[2]; experiment [V], control 372",208 mg %
same,Liver cholesterol,"liver cholesterol; experiment [V], control 2640",623 mg/100 g.
CCCCC/C=C\C/C=C\CCCCCCCC(=O)NC(C)c1ccc(C)cc1 (centres unmarked) [drawing 145],Rabbit serum cholesterol Towering ratio (after 9 weeks),Rabbit serum cholesterol; 100 mg/kg/day,60.1%
"CC[C@H](CC[C@@H](C)[C@H]1CC[C@H]2[C@@H]3CC=C4C[C@@H](O)CC[C@]4(C)[C@H]3CC[C@]12C)C(C)C [β-Sitosterol, reference compound]",Serum cholesterol,"Serum cholesterol; 2 weeks, control 250",250 mg. %
same,Serum cholesterol,"Serum cholesterol; 4 weeks, control 563",438 mg. %
same,Serum cholesterol,"Serum cholesterol; 6 weeks, control 890",875 mg. %
same,Serum cholesterol,"Serum cholesterol; 8 weeks, control 1150",1063 mg. %
same,Serum cholesterol,"Serum cholesterol; 10 weeks, control 1750",1200 mg. %
same,Rabbit serum cholesterol Towering ratio (after 9 weeks),Rabbit serum cholesterol; 800 mg/kg/day,21.2%
CCCCCCCC/C=C\CCCCCCCC(=O)NC(C)c1ccc(CC)cc1 (centres unmarked) [drawing 64],Serum cholesterol,"[2]; experiment [X], control 554",254 mg %
same,Liver cholesterol,"liver cholesterol; experiment [X], control 3293",841 mg/100 g.
CC/C=C\C/C=C\C/C=C\CCCCCCCC(=O)NC(C)c1cccc(Cl)c1 (centres unmarked) [drawing 95],Serum cholesterol,"[2]; experiment [XI], control 595",275 mg %
same,Liver cholesterol,"liver cholesterol; experiment [XI], control 3451",995 mg/100 g.
CC/C=C\C/C=C\C/C=C\CCCCCCCC(=O)NC(CC)c1ccc(OC)cc1 (racemic),Serum cholesterol,"[2]; experiment [XI], control 595",325 mg %
same,Liver cholesterol,"liver cholesterol; experiment [XI], control 3451",1450 mg/100 g.
CCCCC/C=C\C/C=C\CCCCCCCC(=O)NC(CC)c1ccc(C)cc1 (centres unmarked) [drawing 21],Serum cholesterol,"[2]; experiment [III], control 471",242 mg %
same,Liver cholesterol,liver cholesterol; [3],1065 mg/100 g.
CCCCC/C=C\C/C=C\CCCCCCCC(=O)NC(C)c1ccccc1 (centres unmarked) [drawing 136],LD50,[1],> 50000 mg/kg
CC/C=C\C/C=C\C/C=C\CCCCCCCC(=O)NC(CC)c1ccc([N+](=O)[O-])cc1 (centres unmarked) [drawing 98],Serum cholesterol,"[2]; experiment [XI], control 595",365 mg %
same,Liver cholesterol,"liver cholesterol; experiment [XI], control 3451",1325 mg/100 g.
CCCCC/C=C\C/C=C\CCCCCCCC(=O)NC12CC3CC(CC(C3)C1)C2 [drawing 140],LD50,[1],> 50000 mg/kg
CCCCC/C=C\C/C=C\CCCCCCCC(=O)NC(C)c1ccc(Cl)c(Cl)c1 (centres unmarked) [drawing 148],Rabbit serum cholesterol Towering ratio (after 9 weeks),Rabbit serum cholesterol; 100 mg/kg/day,61.5%
CCCCCCCC/C=C\CCCCCCCC(=O)NC(C)c1ccc(Br)cc1 (centres unmarked) [drawing 78],Serum cholesterol,"[2]; experiment [XI], control 595",253 mg %
same,Liver cholesterol,"liver cholesterol; experiment [XI], control 3451",921 mg/100 g.
CCCCC/C=C\C/C=C\CCCCCCCC(=O)NC12CC3CC(CC(C3)C1)C2 [drawing 53],Serum cholesterol,"[2]; experiment [IX], control 336",288 mg %
same,Liver cholesterol,"liver cholesterol; experiment [IX], control 2200",721 mg/100 g.
CCCCCCCC/C=C\CCCCCCCC(=O)NC12CC3CC(CC(C3)C1)C2,Serum cholesterol,"[2]; experiment [IX], control 336",294 mg %
same,Liver cholesterol,"liver cholesterol; experiment [IX], control 2200",1120 mg/100 g.
CCCCCCCC/C=C\CCCCCCCC(=O)NC(C)c1ccc(CC)cc1 (centres unmarked) [drawing 63],Serum cholesterol,"[2]; experiment [X], control 554",398 mg %
same,Liver cholesterol,"liver cholesterol; experiment [X], control 3293",1210 mg/100 g.
CCCCC/C=C\C/C=C\CCCCCCCC(=O)NC(CC)c1ccccc1 (centres unmarked) [drawing 13],Serum cholesterol,"[2]; experiment [II], control 521",274 mg %
same,Liver cholesterol,"liver cholesterol; experiment [II], control 3308",992 mg/100 g.
CCCCCCCCCCCCCCCC(=O)NC(C)c1ccccc1 (centres unmarked) [drawing 11],Serum cholesterol,"[2]; experiment [II], control 521",300 mg %
same,Liver cholesterol,"liver cholesterol; experiment [II], control 3308",906 mg/100 g.
CCCCC/C=C\C/C=C\CCCCCCCC(=O)NC(C)c1cccc([N+](=O)[O-])c1 (centres unmarked),Serum cholesterol,"[2]; experiment [VIII], control 472",287 mg %
same,Liver cholesterol,liver cholesterol; [4],992 mg/100 g.
CC(C)CCCCCCCCCCCCCCC(=O)NC(Cc1ccccc1)c1ccccc1 (stereo not drawn) [d- iso-C17 H35 CO],Serum cholesterol,"[2]; experiment [V], control 372",209 mg %
same,Liver cholesterol,"liver cholesterol; experiment [V], control 2640",561 mg/100 g.
CC/C=C\C/C=C\C/C=C\CCCCCCCC(=O)NC(C)c1ccccc1C (centres unmarked) [drawing 151],Rabbit serum cholesterol Towering ratio (after 9 weeks),Rabbit serum cholesterol; 100 mg/kg/day,54.5%
"CCCCC/C=C\C/C=C\CCCCCCCC(=O)N(C1CCCCC1)C1CCCCC1 [N,N-dicyclohexyl linoleamide]",Serum cholesterol,"Serum cholesterol; 2 weeks, control 250",250 mg. %
same,Serum cholesterol,"Serum cholesterol; 4 weeks, control 563",120 mg. %
same,Serum cholesterol,"Serum cholesterol; 6 weeks, control 890",62 mg. %
same,Serum cholesterol,"Serum cholesterol; 8 weeks, control 1150",62 mg. %
same,Serum cholesterol,"Serum cholesterol; 10 weeks, control 1750",65 mg. %
CC/C=C\C/C=C\C/C=C\CCCCCCCC(=O)NC(CC)c1ccc([N+](=O)[O-])cc1 (centres unmarked) [drawing 97],Serum cholesterol,"[2]; experiment [XI], control 595",245 mg %
same,Liver cholesterol,"liver cholesterol; experiment [XI], control 3451",1004 mg/100 g.
CCCCC/C=C\C/C=C\CCCCCCCC(=O)NC(C)c1ccccc1[N+](=O)[O-] (centres unmarked),Serum cholesterol,"[2]; experiment [VIII], control 472",299 mg %
same,Liver cholesterol,liver cholesterol; [4],1003 mg/100 g.
CCCCC/C=C\C/C=C\CCCCCCCC(=O)NC(C)c1ccc(Cl)cc1 (centres unmarked) [drawing 72],Serum cholesterol,"[2]; experiment [XI], control 595",230 mg %
same,Liver cholesterol,"liver cholesterol; experiment [XI], control 3451",845 mg/100 g.
CCCCC/C=C\C/C=C\CCCCCCCC(=O)NC(CC)c1ccccc1 (centres unmarked) [drawing 14],Serum cholesterol,"[2]; experiment [II], control 521",302 mg %
same,Liver cholesterol,"liver cholesterol; experiment [II], control 3308",1042 mg/100 g.
CCCCCCCC/C=C\CCCCCCCC(=O)NC(Cc1ccccc1)c1ccccc1 (centres unmarked) [drawing 33],Serum cholesterol,"[2]; experiment [V], control 372",245 mg %
same,Liver cholesterol,"liver cholesterol; experiment [V], control 2640",831 mg/100 g.
CCCCCCCC/C=C\CCCCCCCC(=O)NC(C)c1ccc(OC)cc1 (centres unmarked) [drawing 85],Serum cholesterol,"[2]; experiment [XI], control 595",318 mg %
same,Liver cholesterol,"liver cholesterol; experiment [XI], control 3451",1115 mg/100 g.
CCCCCCCC/C=C\CCCCCCCC(=O)NC(C)c1ccccc1 (centres unmarked) [drawing 7],Serum cholesterol,"[2]; experiment [II], control 521",290 mg %
same,Liver cholesterol,"liver cholesterol; experiment [II], control 3308",815 mg/100 g.
CC(C)CCCCCCCCCCCCCCC(=O)NC(Cc1ccccc1)c1ccccc1 (centres unmarked) [iso-C17 H35 CO],Serum cholesterol,"[2]; experiment [V], control 372",221 mg %
same,Liver cholesterol,"liver cholesterol; experiment [V], control 2640",609 mg/100 g.
CC/C=C\C/C=C\C/C=C\CCCCCCCC(=O)NC(CC)c1ccccc1[N+](=O)[O-] (centres unmarked),Serum cholesterol,"[2]; experiment [VIII], control 472",300 mg %
same,Liver cholesterol,liver cholesterol; [4],1091 mg/100 g.
CCCCCCCC/C=C\CCCCCCCC(=O)NC(C)c1ccc(Br)cc1 (racemic),Serum cholesterol,"[2]; experiment [XI], control 595",299 mg %
same,Liver cholesterol,"liver cholesterol; experiment [XI], control 3451",1039 mg/100 g.
CCCCCCCC/C=C\CCCCCCCC(=O)NC(CC)c1cccc([N+](=O)[O-])c1 (centres unmarked) [drawing 82],Serum cholesterol,"[2]; experiment [XI], control 595",315 mg %
same,Liver cholesterol,"liver cholesterol; experiment [XI], control 3451",1125 mg/100 g.
"CC(C)CCCCCCCCCCCCCCC(=O)NC(C)c1ccccc1 (single isomer, unassigned; (+)) [(+) N-(α-Methylbenzyl)-isostearamide]",Serum cholesterol,"[2]; experiment [I], control 546",251 mg %
same,Liver cholesterol,"liver cholesterol; experiment [I], control 3585",761 mg/100 g.
"CCCCC/C=C\C/C=C\CCCCCCCC(=O)NC(C)c1ccccc1 (single isomer, unassigned; (+)) [(+) N-(α-Methylbenzyl)-linoleamide]",Serum cholesterol,"[2]; experiment [I], control 546",267 mg %
same,Liver cholesterol,"liver cholesterol; experiment [I], control 3585",764 mg/100 g.
